Molecular target: T1, human PAH with the R408W mutation (Homo sapiens, UniProt P00439, R408W)
T1 construct: expressed in transfected cells
T1 sequence (P00439 1-452 R408W): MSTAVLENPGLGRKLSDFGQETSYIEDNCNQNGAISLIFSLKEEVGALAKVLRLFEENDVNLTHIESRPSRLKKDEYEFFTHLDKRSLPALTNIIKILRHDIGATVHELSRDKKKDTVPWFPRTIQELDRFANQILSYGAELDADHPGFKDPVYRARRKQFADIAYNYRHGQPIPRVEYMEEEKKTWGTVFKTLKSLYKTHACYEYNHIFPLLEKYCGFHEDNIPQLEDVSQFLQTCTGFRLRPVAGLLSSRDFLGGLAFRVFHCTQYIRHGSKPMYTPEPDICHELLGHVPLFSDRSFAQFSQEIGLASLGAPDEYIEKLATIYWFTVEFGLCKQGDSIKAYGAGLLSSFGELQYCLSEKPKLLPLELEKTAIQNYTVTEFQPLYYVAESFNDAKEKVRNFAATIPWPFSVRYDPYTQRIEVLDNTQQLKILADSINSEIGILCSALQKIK
Test: Cell Based Phenylalanine Flux Assay;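 note: after compound treatment, cells received sepiapterin plus isotope-labelled Phenylalanine for 4 hours, then labelled Tyrosine in the medium was quantified, 10-point 2-fold dilution series run in duplicate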
Details: A375 cells expressing R408W PAH; 24 hrs with compound, then 20 µM sepiapterin and 800 µM 13C9,15N-Phenylalanine for 4 hours; 13C-Tyrosine by LC-MS; average where tested multiple times; read-out: AC50
Method: Compounds were resuspended in DMSO, and 2-fold serial dilutions were performed to generate a 10-point dose curve. Compounds were added to plated cells in a total volume of 100 µl, and a final DMSO concentration of 0.5%. Each compound was tested in duplicate. Following compound addition, cells were placed in a 5% CO2, 37° C. tissue culture incubator for 24 hrs. After the incubation period, 20 µM sepiapterin and 800 µM 13C9,15N-Phenylalanine were added. After 4 hours, cell media was removed. An aliquot of 10 µl of cell media was combined with 200 µl of extraction buffer (80% acetonitrile/20% H2O) for each well. Determination of ^13C-Tyrosine concentration was assessed by liquid chromatography mass spectrometry.
Where a compound was tested multiple times, the average value of the tests is reported.

Compound | AC50
O=C(c1nnc(-c2cc[nH]n2)o1)N1CCc2[nH]cnc2[C@H]1c1cc2ccccn2n1 (single isomer, unassigned) | 1000 to 5000 nM
Cn1ccc(-c2nc(C(F)F)c(C(=O)N3CCc4[nH]cnc4C3c3cc4ccccn4n3)o2)n1 (stereo not shown) | > 5000 nM
FC(F)c1cccc2cc(C3c4nc[nH]c4CCN3c3nnc(C4CC4)o3)nn12 (stereo not shown) | 1000 to 5000 nM
COCc1ccc2c(C(=O)N3CCc4[nH]cnc4C3c3cc4cccc(Cl)n4n3)cnn2c1 (stereo not shown) | > 5000 nM
COCc1ncc(C(=O)N2CCc3[nH]cnc3C2c2cc3ccccn3n2)s1 (stereo not shown) | 1000 to 5000 nM

Next, values leading:

AC50 | Compound
1000 to 5000 nM | c1cnnc(-c2nnc(N3CCc4[nH]cnc4C3c3cc4ccccn4n3)o2)c1 (stereo not shown)
1000 to 5000 nM | Cc1cccn2nc(C3c4nc[nH]c4CCN3C(=O)c3oc(-c4ccn(C)n4)nc3C(F)F)cc12 (stereo not shown)
1000 to 5000 nM | Cn1cc(-c2ncc(C(=O)N3CCc4[nH]cnc4C3c3cc4c(C(F)F)cccn4n3)o2)cn1 (stereo not shown)

Same assay, conditions: A375 cells expressing human PAH R408W; 24 hrs compound incubation; 13C-Tyrosine by LC-MS; average where tested multiple times; read-out: AC50

Compound | AC50
O=C(c1nc2ccccc2s1)N1CCc2[nH]cnc2[C@H]1c1cc2c(F)cccn2n1 [Example 2002, (S)-benzo[d]thiazol-2-yl(4-(4-fluoropyrazolo[1,5-a]pyridin-2-yl)-1,4,6,7-tetrahydro-5H-imidazo[4,5-c]pyridin-5-yl)methanone] | 500 to 1000 nM
CC(C)c1cccn2nc([C@H]3c4nc[nH]c4CCN3C(=O)c3nnc(-c4cnn(C(F)F)c4)o3)cc12 [Example 1937, (R)-(5-(1-(difluoromethyl)-1H-pyrazol-4-yl)-1,3,4-oxadiazol-2-yl)(4-(4-isopropylpyrazolo[1,5-a]pyridin-2-yl)-1,4,6,7-tetrahydro-5H-imidazo[4,5-c]pyridin-5-yl)methanone] | 1000 to 5000 nM
Cc1cccc2cc([C@H]3c4nc[nH]c4CCN3c3nnc(-c4ccc(F)cc4)o3)nn12 [Example 2011, (R)-2-(4-fluorophenyl)-5-(4-(7-methylpyrazolo[1,5-a]pyridin-2-yl)-1,4,6,7-tetrahydro-5H-imidazo[4,5-c]pyridin-5-yl)-1,3,4-oxadiazole] | > 5000 nM
CC(C)c1cccn2nc([C@H]3c4nc[nH]c4CCN3c3nnc(C4CC4)o3)cc12 [Example 2168, (R)-2-cyclopropyl-5-(4-(4-isopropylpyrazolo[1,5-a]pyridin-2-yl)-1,4,6,7-tetrahydro-5H-imidazo[4,5-c]pyridin-5-yl)-1,3,4-oxadiazole] | 1000 to 5000 nM

Now from value to molecule:

AC50 | Compound
500 to 1000 nM | CC(C)c1nnc(N2CCc3[nH]cnc3[C@H]2c2cc3ccccn3n2)o1 [Example 2301, (S)-2-isopropyl-5-(4-(pyrazolo[1,5-a]pyridin-2-yl)-1,4,6,7-tetrahydro-5H-imidazo[4,5-c]pyridin-5-yl)-1,3,4-oxadiazole]
1000 to 5000 nM | O=C(c1nnc(-c2cnn(C(F)(F)F)c2)o1)N1CCc2[nH]cnc2[C@H]1c1cc2ccccn2n1 [Example 2426, (S)-(4-(pyrazolo[1,5-a]pyridin-2-yl)-6,7-dihydro-1H-imidazo[4,5-c]pyridin-5(4H)-yl)(5-(1-(trifluoromethyl)-1H-pyrazol-4-yl)-1,3,4-oxadiazol-2-yl)methanone]

Same assay, conditions: A375 cells expressing human R408W PAH; 24 hrs compound incubation; 13C-Tyrosine by LC-MS; average where tested multiple times; read-out: AC50

Compound | AC50
FC(F)c1cccn2nc([C@H]3c4nc[nH]c4CCN3c3ncccn3)cc12 [Example 1763, (R)-4-(4-(difluoromethyl)pyrazolo[1,5-a]pyridin-2-yl)-5-(pyrimidin-2-yl)-4,5,6,7-tetrahydro-1H-imidazo[4,5-c]pyridine] | 1000 to 5000 nM
Cc1ccc2c(C(=O)N3CCc4[nH]cnc4[C@H]3c3cc4c(F)cccn4n3)cnn2c1 [Example 1670, (S)-(4-(4-fluoropyrazolo[1,5-a]pyridin-2-yl)-6,7-dihydro-1H-imidazo[4,5-c]pyridin-5(4H)-yl)(6-methylpyrazolo[1,5-a]pyridin-3-yl)methanone] | 500 to 1000 nM
Clc1cccn2nc([C@H]3c4nc[nH]c4CCN3c3ncccn3)cc12 [Example 1665, (R)-4-(4-chloropyrazolo[1,5-a]pyridin-2-yl)-5-(pyrimidin-2-yl)-4,5,6,7-tetrahydro-1H-imidazo[4,5-c]pyridine] | 1000 to 5000 nM
Cn1ccc(-c2ccc3c(C(=O)N4CCc5[nH]cnc5[C@H]4c4cc5cccc(C(F)(F)F)n5n4)cnn3c2)n1 [Example 1632, (S)-(6-(1-methyl-1H-pyrazol-3-yl)pyrazolo[1,5-a]pyridin-3-yl)(4-(7-(trifluoromethyl)pyrazolo[1,5-a]pyridin-2-yl)-6,7-dihydro-1H-imidazo[4,5-c]pyridin-5(4H)-yl)methanone] | 500 to 1000 nM
Cc1cccn2nc([C@@H]3c4nc[nH]c4CCN3C(=O)c3nnc(-c4cnn(C5CCC5)c4)o3)cc12 [Example 1038, (S)-(5-(1-cyclobutyl-1H-pyrazol-4-yl)-1,3,4-oxadiazol-2-yl)(4-(4-methylpyrazolo[1,5-a]pyridin-2-yl)-6,7-dihydro-1H-imidazo[4,5-c]pyridin-5(4H)-yl)methanone] | < 500 nM
Cn1ccc(-c2nnc(C(=O)N3CCc4[nH]cnc4[C@H]3c3cc4ccc(C(F)(F)F)cn4n3)o2)n1 [Example 1128, (S)-(5-(1-methyl-1H-pyrazol-3-yl)-1,3,4-oxadiazol-2-yl)(4-(6-(trifluoromethyl)pyrazolo[1,5-a]pyridin-2-yl)-6,7-dihydro-1H-imidazo[4,5-c]pyridin-5(4H)-yl)methanone] | 500 to 1000 nM
O=C(c1nnc(-c2cccnc2)o1)N1CCc2[nH]cnc2[C@@H]1c1cc2cccc(Cl)n2n1 [Example 1307, (R)-(4-(7-chloropyrazolo[1,5-a]pyridin-2-yl)-6,7-dihydro-1H-imidazo[4,5-c]pyridin-5(4H)-yl)(5-(pyridin-3-yl)-1,3,4-oxadiazol-2-yl)methanone] | 1000 to 5000 nM
CC(C)(O)c1nc(C(F)F)c(C(=O)N2CCc3[nH]cnc3[C@@H]2c2cc3c(C(F)(F)F)cccn3n2)o1 [Example 811, (R)-(4-(difluoromethyl)-2-(2-hydroxypropan-2-yl)oxazol-5-yl)(4-(4-(trifluoromethyl)pyrazolo[1,5-a]pyridin-2-yl)-6,7-dihydro-1H-imidazo[4,5-c]pyridin-5(4H)-yl)methanone] | 1000 to 5000 nM

Now from value to molecule:

AC50 | Compound
1000 to 5000 nM | O=C(c1nnc(C2CC2)o1)N1CCc2[nH]cnc2[C@@H]1c1cc2cc(F)ccn2n1 [Example 1131, (R)-(5-cyclopropyl-1,3,4-oxadiazol-2-yl)(4-(5-fluoropyrazolo[1,5-a]pyridin-2-yl)-6,7-dihydro-1H-imidazo[4,5-c]pyridin-5(4H)-yl)methanone]
500 to 1000 nM | Cc1cccc2cc([C@@H]3c4nc[nH]c4CCN3C(=O)c3nnc(C4CCC4)o3)nn12 [Example 1562, (S)-(5-cyclobutyl-1,3,4-oxadiazol-2-yl)(4-(7-methylpyrazolo[1,5-a]pyridin-2-yl)-6,7-dihydro-1H-imidazo[4,5-c]pyridin-5(4H)-yl)methanone]
< 500 nM | Cc1nc(C(C)(C)F)oc1C(=O)N1CCc2[nH]cnc2[C@H]1c1cc2cccc(C)n2n1 [Example 1252, (S)-(2-(2-fluoropropan-2-yl)-4-methyloxazol-5-yl)(4-(7-methylpyrazolo[1,5-a]pyridin-2-yl)-6,7-dihydro-1H-imidazo[4,5-c]pyridin-5(4H)-yl)methanone]
> 5000 nM | COc1ccc(-c2nnc(C(=O)N3CCc4[nH]cnc4[C@@H]3c3cc4cccc(F)n4n3)o2)nc1 [Example 1524, (R)-(4-(7-fluoropyrazolo[1,5-a]pyridin-2-yl)-6,7-dihydro-1H-imidazo[4,5-c]pyridin-5(4H)-yl)(5-(5-methoxypyridin-2-yl)-1,3,4-oxadiazol-2-yl)methanone]
< 500 nM | Cc1ncccc1-c1nnc(C(=O)N2CCc3[nH]cnc3[C@H]2c2cc3c(C(F)F)cccn3n2)o1 [Example 1394, (S)-(4-(4-(difluoromethyl)pyrazolo[1,5-a]pyridin-2-yl)-6,7-dihydro-1H-imidazo[4,5-c]pyridin-5(4H)-yl)(5-(2-methylpyridin-3-yl)-1,3,4-oxadiazol-2-yl)methanone]
> 5000 nM | O=C(c1ccnn1C(F)F)N1CCc2[nH]cnc2[C@@H]1c1cc2ccc(F)cn2n1 [Example 1089, (R)-(1-(difluoromethyl)-1H-pyrazol-5-yl)(4-(6-fluoropyrazolo[1,5-a]pyridin-2-yl)-6,7-dihydro-1H-imidazo[4,5-c]pyridin-5(4H)-yl)methanone]
< 500 nM | Cc1nc([C@@H](C)O)oc1C(=O)N1CCc2[nH]cnc2[C@H]1c1cc2c(Cl)cccn2n1 [Example 706, ((S)-4-(4-chloropyrazolo[1,5-a]pyridin-2-yl)-6,7-dihydro-1H-imidazo[4,5-c]pyridin-5(4H)-yl)(2-((R)-1-hydroxyethyl)-4-methyloxazol-5-yl)methanone]
1000 to 5000 nM | CC1(c2nnc(C(=O)N3CCc4[nH]cnc4[C@@H]3c3cc4ccccn4n3)o2)CC1 [Example 1285, (R)-(5-(1-methylcyclopropyl)-1,3,4-oxadiazol-2-yl)(4-(pyrazolo[1,5-a]pyridin-2-yl)-6,7-dihydro-1H-imidazo[4,5-c]pyridin-5(4H)-yl)methanone]
> 5000 nM | Cc1ccc2cc([C@H]3c4nc[nH]c4CCN3C(=O)c3nnc(C(C)(C)C)o3)nn2c1 [Example 1111, (R)-(5-(tert-butyl)-1,3,4-oxadiazol-2-yl)(4-(6-methylpyrazolo[1,5-a]pyridin-2-yl)-6,7-dihydro-1H-imidazo[4,5-c]pyridin-5(4H)-yl)methanone]

— patent US20230365592A1 (Agios Pharmaceuticals, Inc., priority 2022, published 2023)
